# In US12458677B2, “Method for preparing Gynostemma pentaphyllum leaf extract and Gynostemma pentaphyllum leaf extract prepared thereby” (BIONIC TRADING CORPORATION, priority 2022, dated 2025):
# Key:
# Atrogin-1 = Atrogin-1 mRNA expression (RT-PCR) in TNF-α-treated L6 myotubes; assay type: cell-based; settings: TNF-α 50 ng/ml alone, 6 hours
# Method: (§1) L6 myoblasts (ATCC) were seeded onto a 6-well plate at 2×10^5 cell/mL and then cultured in DMEM (Hyclone) containing 10% FBS (Hyclone). When the cell density reached about 80-85%, the L6 cells were differentiated into myotubes by removing the medium from the well and replacing with DMEM (Hyclone) containing 2% HS (Hyclone). The differentiation was conducted for a total of 6 days while replacing with a fresh medium every other day. After the differentiation, the Gynostemma pentaphyllum leaf extract of Examples or Comparative Example was dissolved in DMEM containing 50 ng/mL of TNF-α to a concentration of 40 μg/mL and treated to the cells. 6 hours later, total RNAs were isolated using a TRIzol reagent (Takara, Osaka, Japan). The isolated total RNAs were quantified using NanoDrop 1000 (Thermo Fisher Scientific Inc., Waltham, MA, USA). 16 μL of the quantified RNAs were mixed with a reverse transcriptase premix (ELPIS-Biotech) and cDNAs were synthesized under the condition of 55 minutes at 42° C. and 15 minutes at 70° C. using a PCR machine (Gene Amp PCR System 2700; Applied Biosystems, Foster City, CA, USA). […]
# MuRF-1 = MuRF-1 mRNA expression (RT-PCR) in TNF-α-treated L6 myotubes; assay type: cell-based; settings: TNF-α 50 ng/ml alone, 6 hours
# Method: as §1
substance,measurement,setting,value
TNF-α,Atrogin-1 (% of control group),Atrogin-1,248.5 ± 26.4 % of control group
same,MuRF-1 (% of control group),MuRF-1,411.5 ± 32.7 % of control group
